Consider 1 molecule from patent US4859229A, “3-Aryluracils having an ether (thio) carbomyloxy or sulphomyloxy substituent on the aromatic moiety” (Hoffmann-La Roche Inc., priority 1986, dated 1989).

In the assay the test system is weeds, including weed grasses. Briefly: herbicidal activity (general statement, no test described). Format: in vivo. To be noted: in words; no rate or test printed.

Regarding `Cn1c(C(F)(F)F)cc(=O)n(-c2cc(O)c(Cl)cc2F)c1=O` [3-(4-chloro-2-fluoro-5-hydroxyphenyl)-1-methyl-6-trifluoromethyl-2,4(1H,3H)-pyrimidinedione], the herbicidal activity result was “especially pronounced herbicidal activity”.
